From patent US11465972B2, “Inhibitors of oxidized low-density lipoprotein receptor 1 and methods of use thereof” (United States Government as represented by the Department …, priority 2015, dated 2022)
“Also recorded” adds a separate entry of the source.

Experiments:
Type in all cases: cell-based, human
[1] = tested on: LOX-1 mRNA; assay: ox-LDL-induced LOX-1 mRNA expression in HUVECs (q-PCR); settings: for effect on ox-LDL-induced LOX-1 mRNA upregulation / LOX-1 transcription (in words): 5 μg/ml ox-LDL 6 h, 20, 200, 2000 nM; for reduction of LOX-1 transcription: 200 nM concentration
Protocol: (§1) FIG. 3A, FIG. 3B, FIG. 3C and FIG. 3D depict the inhibitory effect of the lead compounds on Dil-ox-LDL uptake by HUVECs and CHO cells (measured by flow cytometry) and the effect of the lead compounds on ox-LDL-induced LOX-1 mRNA and protein expression. (FIG. 3A) (Upper Panel) Flow cytometry measurements using HUVECs in the presence of the five lead compounds (Mol-1-Mol-5), each a at 200 nM concentration. (Lower Panel) The percentage of internalized ox-LDL. Graphs show data as mean (±SD); n=4. *P<0.01 or <0.05 vs. control. (FIG. 3B) IC50 value for Mol-5. IC50 value (in nM) is based on inhibition of Dil-ox-LDL uptake in CHO cells overexpressing human LOX-1. Graphs show data as mean (±SD); n=5. *P<0.01 or <0.05 vs. control. (FIG. 3C) Western blotting assay showing LOX-1 protein expression in HUVECs following incubation with 200 nM Mol-1 to Mol-5 for 30 min, and subsequently exposure to 5 μg/mL ox-LDL for 6 hours. (FIG. 3D) The variation of LOX-1 mRNA expression levels at different concentrations of the compounds following exposure of HUVECs to 5 μg/mL ox-LDL. The concentrations are indicated on the X-axis and the LOX-1 mRNA levels are shown on the Y-axis. The plots for all the five molecules are shown in separate colors. Graphs show data as mean (±SD); n=3. *P<0.01 vs. control; #P<0.01 vs. ox-LDL group.
LOX-1 mRNA levels in HUVECs treated with ox-LDL in the absence or presence of the lead molecules at varying concentrations was also measured.
HUVECs were plated into 12-well plates, and treated with 0, 20, 200 and 2000 nM of each of 5 molecules […] for 30 min, and subsequently exposed to […] ox-LDL for 6 h at 37° C. Total RNA was isolated from the treated HUVECs by using a RNeasy Mini-Kit […] according to the manufacturer's instructions. Prior to using, RNA was treated with DNase I and diluted to 100 ng/tL. 100 ng RNA was applied to synthesize cDNA with SuperScript III 1st Strand DNA Synthesis Kit. qPCR was performed using the Applied Biosystems Fast 7500HT real-time PCR system with a 20 tL reaction volume including 10 tL GoTaq qPCR Master Mix (Promega, Madison, Wis.), 100 ng of cDNA and 0.3 tM primers. Data was analyzed by using MX3000P software. Relative mRNA expression was quantified using the comparative threshold cycle (Ct) method. The sequences of primers used for PCR reaction have been described previously^30.

[2] = tested on: ERK1/2; assay: ox-LDL-induced activation (phosphorylation) of ERK1/2 in HUVECs (Western blotting); settings: 200 nM
Protocol: (§2) FIG. 4A, FIG. 4B, FIG. 4C, FIG. 4D and FIG. 4E depict the effect of lead molecules on ox-LDL-induced the activation of MAPKs in HUVECs, VCAM-1 expression and monocyte adhesion onto HUVECs. […] (FIG. 4B) Western blot analyses showing phospho-p38MAPK expression in HUVECs following exposure to 200 nM of each compound for 30 min, and subsequently exposed to 5 μg/mL ox-LDL for 6 hours. […] (FIG. 4D) The variation of VCAM-1 mRNA expression levels with different concentrations of the led compounds. The concentrations are indicated on the X-axis and the VCAM-1 mRNA levels are shown on the Y-axis. The plots for all five molecules are shown in separate colors. […] Graphs show data as mean (±SD); n=3 (for Western blot and PCR assays) or n=20 (for monocyte adhesion assay). *P<0.01 vs. control; #P<0.01 or <0.05 vs. ox-LDL group.
(§3) To assess downstream effects of each candidate molecule, ox-LDL induced expression and activation of ERK1/2 and P38MAPK was measured in HUVECs in the absence or presence of each candidate molecule (200 nM). […] Importantly, unphosphorylated MAPKs were not affected by any of the candidate molecules.
(§4) HUVECs were plated into 6-well cell culture plates. When the cells were reached 70% confluence, they were treated with 200 nM of each of 5 molecules for 30 min, and subsequently exposed to […] ox-LDL for 6 h. After washing with PBS for 2 times, the cells were treated with Cell Lysis Buffer (Promega, Madison, Wis.) with protease Inhibitor and phosphatase Inhibitor (Sigma-Aldrich, St. Louis, Mo.). The protein concentrations were measured by Bradford protein assay. Proteins (20 tg) were separated by electrophoresis in 12% precast SDS-PAGE gels, and were transferred onto Nitrocellulose Blotting Membrane (GE Healthcare Life Science, Piscataway, N.J.). The membranes were then incubated with LOX-1, VCAM-1 (Abcam, Cambridge, Mass.), ERK1/2, phospho-ERK1/2, phospho-p38MAPK (Cell Signaling Technology, Inc., Danvers, Mass.), or […] (Santa Cruz Biotechnology, Inc., Dallas, Tex.) primary antibodies (1:1000˜1:2000) in blocking solution at 4° C. overnight. Following wash with TBS-1 for 3 times, the blots were incubated with HRP-conjugated secondary antibodies (1:10000) in blocking solution for 1 hour at room temperature. After 3 washes with PBS, the blots were treated with Western Blotting Luminol Reagents (Santa Cruz Biotechnology) for 3 min and then exposed to Blue Basic Autorad Film (GeneMate, Kaysville, Utah). The protein bands were scanned by a Gel Doc™ XR System (Bio-Rad, Hercules, Calif.), and the density of each band was quantified by Image J software. The relative expression of target proteins was calculated with comparison to […] bands.

[3] = tested on: P38 MAPK; assay: ox-LDL-induced activation (phosphorylation) of P38 MAPK in HUVECs (Western blotting); settings: 200 nM
Protocol: as §2, §3, §4

[4] = tested on: LOX-1 protein expression; assay: ox-LDL-induced LOX-1 protein expression in HUVECs (Western blotting); settings: 200 nM, 5 μg/ml ox-LDL
Protocol: as §1
Internalization of ox-LDL via binding to LOX-1 activates endothelial cells and upregulates the expression of LOX-1^2. In this study, it was tested if the lead molecules would inhibit LOX-1 expression. Accordingly, LOX-1 protein expression in HUVECs was measured by Western blotting.
HUVECs were plated into 6-well cell culture plates. […] The protein concentrations were measured by Bradford protein assay. […] The protein bands were scanned by a Gel Doc™ XR System (Bio-Rad, Hercules, Calif.), and the density of each band was quantified by Image J software. The relative expression of target proteins was calculated with comparison to […] bands.

| Structure (SMILES) | effect on ox-LDL-induced LOX-1 mRNA upregulation / LOX-1 transcription (in words) [1] | effect on ox-LDL-induced activation/phosphorylation of ERK1/2 (in words) [2] | effect on ox-LDL-induced activation of P38 MAPK (in words) [3] | effect on ox-LDL-induced LOX-1 protein expression [4] | reduction of LOX-1 transcription [1] | effect on ox-LDL-induced activation/phosphorylation of ERK1/2 (in words) ([2]; listed as MoL-4) | reduction of the level of phospho-P38 MAPK [3] |
| --- | --- | --- | --- | --- | --- | --- | --- |
| CC(C)(C)C(=O)NCCc1nc2ccccc2n1Cc1ccccc1F [Mol-2] | no significant effect | no significant effect | no significant effect | – | – | – | – |
| CCCn1c(CCNC(=O)CCCO)nc2ccccc21 [Mol-4] | significantly reduced | potently reduced | significantly inhibited | significantly reduced | 47% | significantly inhibited | around 60% |
| CCOCCCNC(=O)CCN1C(=O)COc2ccccc21 [Mol-1] | – | significantly inhibited; also recorded: moderately | significantly inhibited | significantly reduced | – | – | around 60% |
| Cc1cc(C)n(CC(O)COc2ccccc2)n1 (centres unmarked) [Mol-5, 1-(3,5-dimethyl-1H-pyrazol-1-yl)-3-phenoxypropan-2-ol] | significantly reduced | significantly inhibited; also recorded: maximum inhibition; also recorded: potently reduced | significantly inhibited; also recorded: maximum inhibition | significantly reduced | 70% | – | 75% |
